Data taken from US8378117B2 (priority 2005, dated 2013).
pIC50: −log10 of the molar value. Read-outs that look alike come from different tables or passages of the source.

Experiments:
CB2 receptor = target: T1, CB2 receptor (Homo sapiens, UniProt P34972); test: Binding assay for CB2 agonists or inverse agonists (SK-N-MC membranes, [3H]-CP-55,940); conditions: for CB2 receptor binding percent inhibition: test concentration not stated
T1 construct: expressed in transfected cells
Summary of the method: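 IC50 came from percent-inhibition data over several compound concentrations, fitted by linear regression. Binding used semi-purified membranes of human CB2-transfected SK-N-MC cells, 90 min at 30 °C, pH 7.5 Tris-HCl with MgCl2, EDTA and BSA, then filtration and scintillation counting.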

CB1 receptor = target: T2, CB1 receptor (Homo sapiens, UniProt P21554); test: Binding assay for CB1 agonists or inverse agonists (SK-N-MC membranes, [3H]-CP-55,940); conditions: for inhibition at 1 µM: read-out: CB1 receptor binding percent inhibition, test concentration 1 μM (footnote 1); for inhibition at 0.5 µM: read-out: CB1 receptor binding percent inhibition, test concentration 0.5 μM (footnote 10)
T2 construct: expressed in transfected cells
T2 sequence (P21554 whole entry): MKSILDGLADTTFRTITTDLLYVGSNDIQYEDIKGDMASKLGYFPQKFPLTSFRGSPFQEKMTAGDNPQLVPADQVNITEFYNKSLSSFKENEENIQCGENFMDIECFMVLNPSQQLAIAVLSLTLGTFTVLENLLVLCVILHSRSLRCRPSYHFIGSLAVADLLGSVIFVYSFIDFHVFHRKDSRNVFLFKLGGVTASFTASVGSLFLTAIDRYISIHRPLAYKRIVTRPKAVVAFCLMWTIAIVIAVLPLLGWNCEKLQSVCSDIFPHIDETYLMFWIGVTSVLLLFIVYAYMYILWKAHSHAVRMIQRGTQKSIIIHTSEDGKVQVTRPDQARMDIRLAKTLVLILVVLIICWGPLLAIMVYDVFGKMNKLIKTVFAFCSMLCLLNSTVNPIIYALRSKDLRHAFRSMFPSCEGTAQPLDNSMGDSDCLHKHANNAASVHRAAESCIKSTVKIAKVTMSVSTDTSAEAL
Summary of the method: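 Radioligand displacement: [3H]-CP-55,940 at […], 90 min at 30° C, pH 7.5 Tris buffer with 0.5 mg/mL fatty-acid-free BSA, using semi-purified membranes of human-CB1-transfected SK-N-MC cells. Bound counts collected on GF/C filters, 10 uM WIN 55,212 for non-specific; IC50 from percent inhibition over several concentrations.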

[1] = calculated by linear regression from percent inhibition at various test concentrations, read-out: Cannabinoid CB1 Receptor Binding IC50
[2] = test concentration 0.2 μM (footnote 2), read-out: CB2 receptor binding percent inhibition
[3] = read-out: CB1 receptor binding percent inhibition, test concentration 0.2 μM (footnote 2)
[4] = read-out: CB2 receptor binding percent inhibition, test concentration 0.2 μM (footnote 2)

T1 sequence (P34972 whole entry): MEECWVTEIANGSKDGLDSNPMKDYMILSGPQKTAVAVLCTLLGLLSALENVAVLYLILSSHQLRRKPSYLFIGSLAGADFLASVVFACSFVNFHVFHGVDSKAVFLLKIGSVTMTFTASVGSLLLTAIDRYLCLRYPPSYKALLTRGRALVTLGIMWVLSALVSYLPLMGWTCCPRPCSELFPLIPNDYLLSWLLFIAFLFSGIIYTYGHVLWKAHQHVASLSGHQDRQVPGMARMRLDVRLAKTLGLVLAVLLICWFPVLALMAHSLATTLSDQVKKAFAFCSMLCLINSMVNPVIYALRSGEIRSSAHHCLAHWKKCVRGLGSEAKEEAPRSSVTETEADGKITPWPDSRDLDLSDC

SMILES | CB2 receptor binding percent inhibition (CB2 receptor) [%] | inhibition at 1 µM (CB1 receptor) [%] | inhibition at 0.2 µM (CB2 receptor; [2]) [%] | inhibition at 0.2 µM (CB1 receptor; [3]) [%] | also measured
C[C@H](NC(=O)c1nn(C2CCCCC2)c2c1CCCCC2Cc1cccc(Cl)c1)c1ccccc1 (stereo partly drawn) [Cpd 7, 8-(3-chloro-benzyl)-1-cyclohexyl-1,4,5,6,7,8-hexahydro-cycloheptapyrazole-3-carboxylic acid [(1S)-1-phenyl-ethyl]-amide] | 12 | 68 | – | – | pIC50 (CB1 receptor; [1]): 5.96
CC(NC(=O)c1nn(C2CCCCC2)c2c1CCCCC2Cc1cccc(Cl)c1)C12CC3CC(CC(C3)C1)C2 (stereo not shown) [Cpd 10, 8-(3-chloro-benzyl)-1-cyclohexyl-1,4,5,6,7,8-hexahydro-cycloheptapyrazole-3-carboxylic acid (1-adamantan-1-yl-ethyl)-amide] | 8 | 0 | – | – | –
CC12CCC(C1)C(C)(C)[C@H]2NC(=O)c1nn(-c2ccc(Cl)cc2Cl)c2c1CCCCC2Cc1cccc(Cl)c1 (stereo partly drawn) [Cpd 15, 8-(3-chloro-benzyl)-1-(2,4-dichloro-phenyl)-1,4,5,6,7,8-hexahydro-cycloheptapyrazole-3-carboxylic acid [(2S)-1,3,3-trimethyl-bicyclo[2.2.1]hept-2-yl]-amide] | 54 | 58 | – | – | –
CC(C)[C@@H](CO)NC(=O)c1nn(-c2ccc(Cl)cc2Cl)c2c1CCCC[C@H]2Cc1cccc(Cl)c1 [Cpd 159, (8S)-8-(3-chloro-benzyl)-1-(2,4-dichloro-phenyl)-1,4,5,6,7,8-hexahydro-cycloheptapyrazole-3-carboxylic acid [(1S)-1-hydroxymethyl-2-methyl-propyl]-amide] | – | – | 3 | 40 | –
CC12CCC(C1)C(C)(C)[C@H]2NC(=O)c1nn(-c2ccc(Cl)cc2Cl)c2c1CCCCC2Cc1ccc(F)cc1 (stereo partly drawn) [Cpd 71, 1-(2,4-dichloro-phenyl)-8-(4-fluoro-benzyl)-1,4,5,6,7,8-hexahydro-cycloheptapyrazole-3-carboxylic acid [(2S)-1,3,3-trimethyl-bicyclo[2.2.1]hept-2-yl]-amide] | 32 | – | – | – | CB1 receptor binding average percent inhibition (CB1 receptor; value shown is an average percent inhibition (footnote 5), concentration not given): ^(5)43%
O=C(NCc1ccccc1)c1nn(C2CCCCC2)c2c1CCCCC2Cc1ccc(F)cc1 (stereo not shown) [Cpd 61, 1-cyclohexyl-8-(4-fluoro-benzyl)-1,4,5,6,7,8-hexahydro-cycloheptapyrazole-3-carboxylic acid benzylamide] | 71 | 36 | – | – | –
C[C@@H](NC(=O)c1nn(-c2cc(Cl)ccc2Cl)c2c1CCCC/C2=C\c1ccc(Cl)cc1)c1ccccc1 [Cpd 195, (8E)-8-(4-chloro-benzylidene)-1-(2,5-dichloro-phenyl)-1,4,5,6,7,8-hexahydro-cycloheptapyrazole-3-carboxylic acid [(1R)-1-phenyl-ethyl]-amide] | – | – | – | – | inhibition at 0.2 µM (CB2 receptor; [4]): 37%; inhibition at 0.2 µM (CB1 receptor; read-out: CB1 receptor binding percent inhibition): 63%
O=C(NC1CC1)c1nn(C2CCCCC2)c2c1CCCCC2Cc1ccc(Cl)cc1 (stereo not shown) [Cpd 33, 8-(4-chloro-benzyl)-1-cyclohexyl-1,4,5,6,7,8-hexahydro-cycloheptapyrazole-3-carboxylic acid cyclopropylamide] | 0 | 0 | – | – | –
O=C(NN1CCCCC1)c1nn(-c2cc(Cl)ccc2Cl)c2c1CCCC/C2=C\c1ccc(Cl)cc1 [Cpd 199, (8E)-8-(4-chloro-benzylidene)-1-(2,5-dichloro-phenyl)-1,4,5,6,7,8-hexahydro-cycloheptapyrazole-3-carboxylic acid piperidin-1-ylamide] | – | – | 30 | 30 | –
O=C(N[C@@H](CCl)Cc1ccccc1)c1nn(-c2nccc(C(F)(F)F)n2)c2c1CCCCC2Cc1cccc(Cl)c1 (stereo partly drawn) [Cpd 187, 8-(3-chloro-benzyl)-1-(4-trifluoromethyl-pyrimidin-2-yl)-1,4,5,6,7,8-hexahydro-cycloheptapyrazole-3-carboxylic acid [(1R)-1-benzyl-2-chloro-ethyl]-amide] | – | – | 23 | 12 | –
O=C(N[C@H](CO)c1ccccc1)c1nn(-c2ccc(Cl)cc2Cl)c2c1CCCC[C@H]2Cc1cccc(Cl)c1 [Cpd 162, (8S)-8-(3-chloro-benzyl)-1-(2,4-dichloro-phenyl)-1,4,5,6,7,8-hexahydro-cycloheptapyrazole-3-carboxylic acid [(1S)-2-hydroxy-1-phenyl-ethyl]-amide] | – | – | 5 | 16 | –
O=C(NC1CC1)c1nn(Cc2ccc(Cl)cc2)c2c1CCCCC2Cc1cccc(Cl)c1 (stereo not shown) [Cpd 35, 1-(4-chloro-benzyl)-8-(3-chloro-benzyl)-1,4,5,6,7,8-hexahydro-cycloheptapyrazole-3-carboxylic acid cyclopropylamide] | 36 | 22 | – | – | –
O=C(NN1CCOCC1)c1nn(-c2cc(Cl)ccc2Cl)c2c1CCCC/C2=C\c1ccc(Cl)cc1 [Cpd 200, (8E)-8-(4-chloro-benzylidene)-1-(2,5-dichloro-phenyl)-1,4,5,6,7,8-hexahydro-cycloheptapyrazole-3-carboxylic acid morpholin-4-ylamide] | – | – | 6 | 15 | –
C[C@@H](NC(=O)c1nn(-c2cc(Cl)ccc2Cl)c2c1CCCC/C2=C\c1ccc(Cl)cc1)C1CCCCC1 [Cpd 196, (8E)-8-(4-chloro-benzylidene)-1-(2,5-dichloro-phenyl)-1,4,5,6,7,8-hexahydro-cycloheptapyrazole-3-carboxylic acid [(1R)-1-cyclohexyl-ethyl]-amide] | – | – | – | 67 | inhibition at 0.2 µM (CB2 receptor; [4]): 49%
CC12CCC(C1)C(C)(C)[C@H]2NC(=O)c1nn(-c2ccc(F)cc2F)c2c1CCCCC2Cc1ccc(F)cc1 (stereo partly drawn) [Cpd 97, 1-(2,4-difluoro-phenyl)-8-(4-fluoro-benzyl)-1,4,5,6,7,8-hexahydro-cycloheptapyrazole-3-carboxylic acid [(2S)-1,3,3-trimethyl-bicyclo[2.2.1]hept-2-yl]-amide] | – | 38 | – | – | pIC50 (CB2 receptor; Cannabinoid CB2 Receptor Binding IC50, calculated by linear regression from percent inhibition at various test concentrations): 6.52; inhibition at 1 µM (CB2 receptor; read-out: CB2 receptor binding percent inhibition, test concentration 1 μM (footnote 1)): 71%
O=C(N[C@H](CCl)c1ccccc1)c1nn(-c2nccc(C(F)(F)F)n2)c2c1CCCCC2Cc1cccc(Cl)c1 (stereo partly drawn) [Cpd 179, 8-(3-chloro-benzyl)-1-(4-trifluoromethyl-pyrimidin-2-yl)-1,4,5,6,7,8-hexahydro-cycloheptapyrazole-3-carboxylic acid [(1S)-2-chloro-1-phenyl-ethyl]-amide] | – | – | 29 | 0 | –
CCOC(=O)[C@@H]1C2CCC(C2)[C@@H]1NC(=O)c1nn(-c2ccc(Cl)cc2Cl)c2c1CCCCC2Cc1cccc(Cl)c1 (stereo partly drawn) [Cpd 109, (2R,3S)-3-{[8-(3-chloro-benzyl)-1-(2,4-dichloro-phenyl)-1,4,5,6,7,8-hexahydro-cycloheptapyrazole-3-carbonyl]-amino}-bicyclo[2.2.1]heptane-2-carboxylic acid ethyl ester] | 48 | 72 | – | – | pIC50 (CB1 receptor; [1]): 6.52; inhibition at 0.5 µM (CB1 receptor): 60%
O=C(NCc1ccc(C(F)(F)F)cc1)c1nn(C2CCCCC2)c2c1CCCCC2Cc1ccc(F)cc1 (stereo not shown) [Cpd 65, 1-cyclohexyl-8-(4-fluoro-benzyl)-1,4,5,6,7,8-hexahydro-cycloheptapyrazole-3-carboxylic acid 4-trifluoromethyl-benzylamide] | 52 | 29 | – | – | –
O=C(N[C@@H]1c2ccccc2C[C@@H]1O)c1nn(C2CCCCC2)c2c1CCCCC2Cc1cccc(F)c1 (single isomer, unassigned) [Cpd 115, (8S*)-1-cyclohexyl-8-(3-fluoro-benzyl)-1,4,5,6,7,8-hexahydro-cycloheptapyrazole-3-carboxylic acid [(1R,2S)-2-hydroxy-indan-1-yl]-amide] | 99 | – | – | – | pIC50 (CB1 receptor; Cannabinoid CB1 Receptor Binding IC50, calculated by linear regression from percent inhibition at various test concentrations): 6.30; inhibition at 0.5 µM (CB1 receptor): 67%; CB1 receptor binding percent inhibition (CB1 receptor; test concentration 1 μM (footnote 1), 1 µM): 79%
O=C(N[C@H](CO)c1ccccc1)c1nn(-c2ccc(F)cc2F)c2c1CCCCC2Cc1cccc(F)c1 (stereo partly drawn) [Cpd 168, 1-(2,4-difluoro-phenyl)-8-(3-fluoro-benzyl)-1,4,5,6,7,8-hexahydro-cycloheptapyrazole-3-carboxylic acid [(1S)-2-hydroxy-1-phenyl-ethyl]-amide] | – | – | 11 | 18 | –
O=C(NC1CCCC1)c1nn(C2CCCCC2)c2c1CCCCC2Cc1ccc(F)cc1 (stereo not shown) [Cpd 59, 1-cyclohexyl-8-(4-fluoro-benzyl)-1,4,5,6,7,8-hexahydro-cycloheptapyrazole-3-carboxylic acid cyclopentylamide] | 60 | 27 | – | – | –
O=S(=O)(/C=C/c1nn(-c2ccc(F)cc2F)c2c1CCCCC2Cc1ccc(F)cc1)NN1CCOCC1 (stereo not shown) [Cpd 127, (2E)-2-[1-(2,4-difluoro-phenyl)-8-(4-fluoro-benzyl)-1,4,5,6,7,8-hexahydro-cycloheptapyrazol-3-yl]-ethenesulfonic acid morpholin-4-ylamide] | 0 | 36 | – | – | –
CC(C)[C@@H](CO)NC(=O)c1nn(-c2ccc(Cl)cc2Cl)c2c1CCCC[C@@H]2Cc1cccc(Cl)c1 [Cpd 158, (8R)-8-(3-chloro-benzyl)-1-(2,4-dichloro-phenyl)-1,4,5,6,7,8-hexahydro-cycloheptapyrazole-3-carboxylic acid [(1S)-1-hydroxymethyl-2-methyl-propyl]-amide] | – | – | 0 | 14 | –
